Data: patent US20090170803A1, “[…] OF […]” (priority 2002, published 2009)
“Also recorded” adds a separate entry of the source.

Key:
human PMNL = assay: Preliminary in vitro studies: effects of A2AAR agonists on phagocytic cells (human PMNL); type: cell-based
C57BL/6 mice = assay: Murine model of endotoxin-induced septic shock (E. coli 026:B6 LPS), mortality; type: in vivo; parameters: protection of mice from E. Coli 026:B6 LPS-induced endotoxemia, dose response (FIG. 1): dose or concentration left out as unconfirmed
E. Coli = assay: Mice injected with live E. Coli and treated with ceftriaxone, survival; type: in vivo; conditions: 20 million E. Coli IP at time 0; ceftriaxone once at time 0; 50 μg/kg ATL146e 8 times at 6 hour intervals
A2A-KO mice = assay: Murine septic shock model in A2A-KO mice; type: in vivo; conditions: 5 μg/kg, four doses at six hour intervals beginning 12 hours after LPS 12.5 mg/kg
IL-6 = tested on: IL-6; parameters: species or system C57BL/6 mice; conditions: mouse, in vivo, ip
human monocytes = assay: Inhibition of LPS-stimulated human monocyte TNF production; type: cell-based
RANTES = tested on: RANTES; parameters: species or system C57BL/6 mice; conditions: mouse, in vivo
neutrophils in kidneys = tested on: neutrophils in kidneys; parameters: species or system C57BL/6 mice; conditions: mouse, in vivo, ip

Compound: Rolipram [reference compound]
- accentuation of the A2AAR agonist effects on activation of PMNLs (human PMNL; with A2AAR agonists): synergistically accentuates

Compound: CCNC(=O)[C@H]1O[C@@H](n2cnc3c(N)nc(C#CCC4CCC(C(=O)OC)CC4)nc32)C(O)C1O (stereo in doubt) [ATL146e, 4-{3-[6-Amino-9-(5-ethylcarbamoyl-3,4-dihydroxy-tetrahydro-furan-2-yl)-9H-purin-2-yl]-prop-2-ynyl}cyclohexanecarboxylic acid methyl ester]
- protection from death (FIG. 2) (C57BL/6 mice; 5 μg/kg i.p. at 6-hour intervals for 24 hours beginning simultaneously with LPS 12.5 mg/kg, p=0.0002): protection from death
- protection from death after a delay in the onset of therapy (FIG. 3) (C57BL/6 mice; 5 μg/kg i.p. at six hour intervals, four doses, delay of 24 hours following LPS challenge (12.5 mg/kg)): protection from death
- protection of mice from E. Coli 026:B6 LPS-induced endotoxemia, dose response (FIG. 1) (C57BL/6 mice; IP one hour prior to LPS and at 6 hour intervals, 8 doses/48 hours): dose dependent response
- protection at the highest dosages (C57BL/6 mice; highest dosages, LPS 12.5 mg/kg): complete protection
- survival at 4 days (C57BL/6 mice; highest doses, vehicle mortality 75%): 100%
- survival of mice injected with live E. Coli and treated with ceftriaxone, compared to antibiotic alone (FIG. 6) (E. Coli): increases survival
- protective effect in A2A-KO mice relative to wild type (A2A-KO mice): less protection; also recorded: completely lost
- effects on phagocytic cells in vitro and in animal models of acute inflammation (human PMNL): potent agonists and provide anti-inflammatory responses
- renal IL-6 levels, relative to those from mice exposed to LPS/Stx2 (FIG. 7) (IL-6): approximately 16%
- inhibition of LPS-stimulated human monocyte TNF production, potency comparison (human monocytes): more potent than CGS21680
- chemokine Renal RANTES in kidney samples (FIG. 8) (RANTES): reduction

Compound: CCNC(=O)[C@H]1O[C@@H](n2cnc3c(N)nc(C#C[C@]4(O)CCC[C@@H](C)C4)nc32)C(O)C1O (stereo in doubt) [ATL-203, 5-[6-Amino-2-(1-hydroxy-3-methylcyclohexylethynyl)purin-9-yl]-3,4-dihydroxytetrahydrofuran-2-carboxylic acid ethylamide]
- neutrophil positive glomeruli, relative to the Stx2 positive samples (FIG. 9) (neutrophils in kidneys): 40%
- renal IL-6 levels, relative to those from mice exposed to LPS/Stx2 (FIG. 7) (IL-6): approximately 16%
- chemokine Renal RANTES in kidney samples (FIG. 8) (RANTES): reduction

Compound: CCNC(=O)[C@H]1O[C@@H](n2cnc3c(N)nc(C#CCC4CCC(COC(C)=O)CC4)nc32)C(O)C1O (stereo in doubt) [ATL193, Acetic acid 4-{3-[6-amino-9-(5-ethylcarbamoyl-3,4-dihydroxytetrahydrofuran-2-yl)-9H-purin-2-yl]-prop-2-ynyl}-cyclohexylmethyl Ester]
- effects on phagocytic cells in vitro and in animal models of acute inflammation (human PMNL): potent agonists and provide anti-inflammatory responses

Compound: Nc1nc(NCCc2ccc(O)cc2)nc2nc(-c3ccco3)nn12 [ZM241385, reference compound]
- protective efficacy of ATL146e when ZM is co-administered (FIG. 4) (C57BL/6 mice; ZM in equimolar concentrations (3 μg/kg) with ATL146e, six hour intervals for 24 hours beginning 12 hours after LPS): nearly eliminated
- protection from death by antagonist alone (FIG. 4) (C57BL/6 mice; six hour intervals for 24 hours beginning 12 hours after LPS challenge): does not protect
- block by A2AAR antagonist of the agonist effect on TNF-stimulated superoxide release (human PMNL; adherent PMNLs, with A2AAR agonists): completely blocked
- reversal of the inhibition of monocyte TNF production by A2AAR antagonist (human monocytes; with ATL146e): reversed
